Source: article PMC6904270, “A High-Throughput Assay for Monitoring Ubiquitination in Real Time” (Frontiers in Chemistry, 2019)

Biological target: T1, E1 ubiquitin-activating enzyme (UBE1) (Homo sapiens, UniProt P22314)
T1 construct: gene UBA1
T1 sequence (P22314 2-1058): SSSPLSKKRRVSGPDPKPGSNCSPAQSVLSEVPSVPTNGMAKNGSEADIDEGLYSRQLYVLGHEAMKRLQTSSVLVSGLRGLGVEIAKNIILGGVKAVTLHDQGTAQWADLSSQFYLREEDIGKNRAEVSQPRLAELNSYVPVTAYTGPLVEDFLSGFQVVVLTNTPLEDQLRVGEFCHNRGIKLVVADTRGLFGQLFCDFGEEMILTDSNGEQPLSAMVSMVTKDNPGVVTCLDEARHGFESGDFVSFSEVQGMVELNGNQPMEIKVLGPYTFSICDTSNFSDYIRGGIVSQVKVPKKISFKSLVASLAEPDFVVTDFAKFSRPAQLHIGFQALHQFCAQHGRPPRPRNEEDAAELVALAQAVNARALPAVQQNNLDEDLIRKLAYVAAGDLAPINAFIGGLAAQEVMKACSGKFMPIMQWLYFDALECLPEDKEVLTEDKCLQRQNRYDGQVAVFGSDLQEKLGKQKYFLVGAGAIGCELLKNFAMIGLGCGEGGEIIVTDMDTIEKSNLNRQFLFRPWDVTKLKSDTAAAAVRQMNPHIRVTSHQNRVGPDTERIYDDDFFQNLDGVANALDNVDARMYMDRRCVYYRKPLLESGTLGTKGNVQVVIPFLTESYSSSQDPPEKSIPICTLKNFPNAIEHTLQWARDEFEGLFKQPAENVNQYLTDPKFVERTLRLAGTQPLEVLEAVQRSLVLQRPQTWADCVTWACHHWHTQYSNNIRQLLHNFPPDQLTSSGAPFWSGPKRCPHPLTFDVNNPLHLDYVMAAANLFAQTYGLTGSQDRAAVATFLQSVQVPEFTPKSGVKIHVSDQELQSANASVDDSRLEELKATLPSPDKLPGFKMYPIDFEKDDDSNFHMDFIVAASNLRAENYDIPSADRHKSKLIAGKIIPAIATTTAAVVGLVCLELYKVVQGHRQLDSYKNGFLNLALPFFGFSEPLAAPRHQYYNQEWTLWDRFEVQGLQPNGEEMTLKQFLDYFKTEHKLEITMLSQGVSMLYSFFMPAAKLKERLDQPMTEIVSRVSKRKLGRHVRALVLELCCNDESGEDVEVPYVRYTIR
Assay: fluorescence polarization of E1~TAMRA-Ub complex formation with purified E1 (UbiReal), endpoint dose-response
Type: biochemical

- IC50: 9.15 µM
Compound: CCOC(=O)c1ccc(N2NC(=O)C(=Cc3ccc([N+](=O)[O-])o3)C2=O)cc1 [PYR-41]
